Results published in US11590116B2 (THERAVANCE BIOPHARMA R&D IP, LLC, priority 2019, dated 2023).

Key:
[1] = tested on: TGF-β-stimulated SMAD3 phosphorylation in BEAS-2B cells; assay: Cellular ALK5 potency assay, inhibition of TGF-β stimulated pSMAD3 formation in BEAS-2B cells; type: cell-based; conditions: Homo sapiens; inhibition of TGF-β stimulated pSMAD3 formation, BEAS-2B cells; read-out: BEAS2B pIC50 (converted)
Method in brief: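 pSMAD3 was quantified by AlphaLISA in BEAS-2B lysates after 10 ng/mL TGF-β (final) for 30 min. Before stimulation, cells received compound for 1 h at 37° C in supplemented HBSS. Values are pIC50, relative to TGF-β-stimulated cells without compound.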

[2] = molecular target: T1, recombinant human ALK5 (TGF-βR1) protein (Homo sapiens, UniProt P36897); assay: Biochemical ALK5 (TGF-βR1) assay to measure pKi (LANCE Ultra ULight kinase assay); conditions: apparent pKi from pIC50 by Cheng-Prusoff, read-out: ALK5 pKi (converted)
T1 construct: purchased Life Technologies PR9075A
T1 sequence (P36897 34-503): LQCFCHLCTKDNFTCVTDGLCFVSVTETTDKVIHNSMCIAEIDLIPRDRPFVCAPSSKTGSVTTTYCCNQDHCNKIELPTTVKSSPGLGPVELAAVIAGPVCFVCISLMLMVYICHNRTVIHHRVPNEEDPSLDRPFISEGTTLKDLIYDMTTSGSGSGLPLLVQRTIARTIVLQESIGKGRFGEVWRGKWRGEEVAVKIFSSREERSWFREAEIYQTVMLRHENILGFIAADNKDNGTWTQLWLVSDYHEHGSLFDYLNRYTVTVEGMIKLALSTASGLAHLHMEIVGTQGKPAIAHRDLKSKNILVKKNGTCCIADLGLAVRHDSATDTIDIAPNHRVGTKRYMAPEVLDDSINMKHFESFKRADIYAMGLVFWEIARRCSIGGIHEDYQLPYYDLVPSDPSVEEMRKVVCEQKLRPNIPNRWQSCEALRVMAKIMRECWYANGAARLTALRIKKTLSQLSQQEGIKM
Method in brief: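 After a 60 min room-temperature preincubation of ALK5 with compound, phosphorylation proceeds 60 min at 37 °C on ATP addition (125 μM as 5× stock). Detection: Eu-labelled phospho-Thr1342 Topo IIα antibody in EDTA buffer, pH 7.0; emission 665 nm.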

| Ki [2] [nM] | Structure (SMILES) | IC50 [1] [nM] |
| --- | --- | --- |
| < 0.0316 | Cc1cccc(-c2[nH]cnc2-c2ccc3ncc(Nc4ccc(N5CCN(C)CC5)cn4)cc3c2)n1 [Compound 441, N-[5-(4-methylpiperazin-1-yl)-2-pyridyl]-6-[5-(6-methyl-2-pyridyl)-1H-imidazol-4-yl]quinolin-3-amine] | 25.1 to 158 |
| 3.98 to 31.6 | Cc1nc(-c2n[nH]cc2-c2ccc3ncc(-c4nnc5n4CCNC5)cc3n2)ccc1F [Compound 631, 2-[3-(5-fluoro-6-methyl-2-pyridyl)-1H-pyrazol-4-yl]-7-(5,6,7,8-tetrahydro-[1,2,4]triazolo[4,3-a]pyrazin-3-yl)-1,5-naphthyridine] | 1580 to 10000 |
| < 0.0316 | Cc1cccc(-c2n[nH]cc2-c2ccc3ncc(N4CCC(N(C)C)CC4)cc3n2)n1 [Compound 141, N,N-dimethyl-1-[6-[3-(6-methyl-2-pyridyl)-1H-pyrazol-4-yl]-1,5-naphthyridin-3-yl]piperidin-4-amine] | 25.1 to 158 |
| 0.398 to 3.16 | Cc1cccc(-c2[nH]cnc2-c2ccc3ncc(C4=CC(C)(C)NC(C)(C)C4)cc3c2)n1 [Compound 117, 6-[5-(6-methyl-2-pyridyl)-1H-imidazol-4-yl]-3-(2,2,6,6-tetramethyl-1,3-dihydropyridin-4-yl)quinoline] | 25.1 to 158 |
| 0.0398 to 0.316 | Cc1cccc(-c2[nH]cnc2-c2ccc3ncc(NCCN4CCC5(CCNC5)C4)cc3c2)n1 (centres unmarked) [Compound 711, N-[2-(2,7-diazaspiro[4.4]nonan-2-yl)ethyl]-6-[5-(6-methyl-2-pyridyl)-1H-imidazol-4-yl]quinolin-3-amine] | 200 to 1260 |
| 0.0398 to 0.316 | Cc1cccc(-c2[nH]cnc2-c2ccc3ncc(-c4cncc(C(=O)OC5CCNCC5)c4)cc3c2)n1 [Compound 136, 4-piperidyl 5-[6-[5-(6-methyl-2-pyridyl)-1H-imidazol-4-yl]-3-quinolyl]pyridine-3-carboxylate] | 200 to 1260 |
| 0.0398 to 0.316 | Cc1cccc(-c2[nH]cnc2-c2ccc3ncc(-c4ccc(C(=O)OCCN5CCNCC5)cn4)cc3c2)n1 [Compound 1025, 2-piperazin-1-ylethyl 6-[6-[5-(6-methyl-2-pyridyl)-1H-imidazol-4-yl]-3-quinolyl]pyridine-3-carboxylate] | 25.1 to 158 |
| 0.0398 to 0.316 | Cc1cccc(-c2[nH]cnc2-c2ccc3ncc(NC(=O)C4CCNCC4)cc3c2)n1 [Compound 649, N-[6-[5-(6-methyl-2-pyridyl)-1H-imidazol-4-yl]-3-quinolyl]piperidine-4-carboxamide] | 200 to 1260 |
| 0.0398 to 0.316 | COc1ncccc1-c1cnc2ccc(-c3c[nH]nc3-c3cccc(C)n3)nc2c1 [Compound 61, 7-(2-methoxy-3-pyridyl)-2-[3-(6-methyl-2-pyridyl)-1H-pyrazol-4-yl]-1,5-naphthyridine] | 25.1 to 158 |
| 0.398 to 3.16 | Cc1cccc(-c2n[nH]cc2-c2ccc3ncc(C4CCNCC4)cc3n2)n1 [Compound 470, 2-[3-(6-methyl-2-pyridyl)-1H-pyrazol-4-yl]-7-(4-piperidyl)-1,5-naphthyridine] | 25.1 to 158 |
| 0.0398 to 0.316 | Cc1nc(-c2nc3ccccn3c2-c2ccc3ncc(-c4cnn5c4CNCC5)cc3n2)ccc1F [Compound 89, 2-[2-(5-fluoro-6-methyl-2-pyridyl)imidazo[1,2-a]pyridin-3-yl]-7-(4,5,6,7-tetrahydropyrazolo[1,5-a]pyrazin-3-yl)-1,5-naphthyridine] | 25.1 to 158 |
| 0.0398 to 0.316 | Cc1cccc(-c2[nH]cnc2-c2ccc3ncc(-c4cccc(NC5CCNCC5)n4)cc3c2)n1 [Compound 450, 6-[6-[5-(6-methyl-2-pyridyl)-1H-imidazol-4-yl]-3-quinolyl]-N-(4-piperidyl)pyridin-2-amine] | 25.1 to 158 |
| < 0.0316 | Cc1cccc(-c2[nH]cnc2-c2ccc3ncc(N4CCC(NCCSC5CCOC5=O)C4)cc3c2)n1 (centres unmarked) [Compound 230, 3-[2-[[1-[6-[5-(6-methyl-2-pyridyl)-1H-imidazol-4-yl]-3-quinolyl]pyrrolidin-3-yl]amino]ethylsulfanyl]tetrahydrofuran-2-one] | 25.1 to 158 |
| 0.0398 to 0.316 | Cc1cccc(-c2nnn(Cc3ccccc3)c2-c2ccc3ncc(N4CCC(N(C)C)C4)cc3n2)n1 (racemic) [Compound 331, rac-(3S)-1-[6-[3-benzyl-5-(6-methyl-2-pyridyl)triazol-4-yl]-1,5-naphthyridin-3-yl]-N,N-dimethyl-pyrrolidin-3-amine] | 200 to 1260 |
| 0.0398 to 0.316 | Cc1cccc(-c2n[nH]cc2-c2ccc3ncc(N4CC(C)N(CCN)C(C)C4)cc3n2)n1 (centres unmarked) [Compound 283, 2-[2,6-dimethyl-4-[6-[3-(6-methyl-2-pyridyl)-1H-pyrazol-4-yl]-1,5-naphthyridin-3-yl]piperazin-1-yl]ethanamine] | 200 to 1260 |
| < 0.0316 | Cc1cccc(-c2n[nH]cc2-c2ccc3ncc(-c4cnn5c4NCC5)cc3n2)n1 [Compound 570, 7-(2,3-dihydro-1H-imidazo[1,2-b]pyrazol-7-yl)-2-[3-(6-methyl-2-pyridyl)-1H-pyrazol-4-yl]-1,5-naphthyridine] | < 20 |
| 0.0398 to 0.316 | Cc1cccc(-c2[nH]nnc2-c2ccc3ncc(N4CCNCC4)cc3c2)n1 [Compound 409, 6-[5-(6-methyl-2-pyridyl)-1H-triazol-4-yl]-3-piperazin-1-yl-quinoline] | 25.1 to 158 |
| < 0.0316 | Cc1nc(-c2n[nH]cc2-c2ccc3ncc(-c4cn5c(n4)CNCC5)cc3n2)ccc1F [Compound 422, 2-[3-(5-fluoro-6-methyl-2-pyridyl)-1H-pyrazol-4-yl]-7-(5,6,7,8-tetrahydroimidazo[1,2-a]pyrazin-2-yl)-1,5-naphthyridine] | 25.1 to 158 |
| 0.0398 to 0.316 | Cc1cccc(-c2[nH]cnc2-c2ccc3ncc(Nc4ccc(N5CCNCC5)cn4)cc3c2)n1 [Compound 519, 6-[5-(6-methyl-2-pyridyl)-1H-imidazol-4-yl]-N-(5-piperazin-1-yl-2-pyridyl)quinolin-3-amine] | 200 to 1260 |
| 0.398 to 3.16 | Cc1cccc(-c2[nH]cnc2-c2ccc3nccc(C(=O)OCC4CNC4)c3c2)n1 [Compound 1038, azetidin-3-ylmethyl 6-[5-(6-methyl-2-pyridyl)-1H-imidazol-4-yl]quinoline-4-carboxylate] | 25.1 to 158 |
| 0.0398 to 0.316 | COC(=O)c1cnc2ccc(-c3cn[nH]c3-c3cccc(C)n3)nc2c1 [Compound 53, methyl 6-[5-(6-methyl-2-pyridyl)-1H-pyrazol-4-yl]-1,5-naphthyridine-3-carboxylate] | 25.1 to 158 |
| 0.0398 to 0.316 | Cc1cccc(-c2n[nH]cc2-c2ccc3ncc(-c4nc5c([nH]4)CCNC5)cc3n2)n1 [Compound 134, 2-[3-(6-methyl-2-pyridyl)-1H-pyrazol-4-yl]-7-(4,5,6,7-tetrahydro-1H-imidazo[4,5-c]pyridin-2-yl)-1,5-naphthyridine] | 1580 to 10000 |
| < 0.0316 | Cc1cccc(-c2[nH]cnc2-c2ccc3ncc(-c4ccc5c(c4)CC[C@H]5N)cc3c2)n1 [Compound 1154, (1R)-5-[6-[5-(6-methyl-2-pyridyl)-1H-imidazol-4-yl]-3-quinolyl]indan-1-amine] | < 20 |
| < 0.0316 | Cc1nc(-c2n[nH]cc2-c2ccc3ncc(-c4cnc5n4CCN5)cc3n2)ccc1F [Compound 332, 7-(6,7-dihydro-5H-imidazo[1,2-a]imidazol-3-yl)-2-[3-(5-fluoro-6-methyl-2-pyridyl)-1H-pyrazol-4-yl]-1,5-naphthyridine] | 25.1 to 158 |
| < 0.0316 | Cc1cccc(-c2[nH]cnc2-c2ccc3ncc(-c4cc(C(=O)O[C@@H]5CCNC5)ccn4)cc3c2)n1 [Compound 1087, [(3R)-pyrrolidin-3-yl] 2-[6-[5-(6-methyl-2-pyridyl)-1H-imidazol-4-yl]-3-quinolyl]pyridine-4-carboxylate] | 25.1 to 158 |
| < 0.0316 | Cc1cccc(-c2[nH]cnc2-c2ccc3ncc(C4=CCC(NC(C)C)CC4)cc3c2)n1 (centres unmarked) [Compound 540, N-isopropyl-4-[6-[5-(6-methyl-2-pyridyl)-1H-imidazol-4-yl]-3-quinolyl]cyclohex-3-en-1-amine] | 25.1 to 158 |
| 0.0398 to 0.316 | Cc1cccc(-c2n[nH]cc2-c2ccc3ncc(N4CC5CNC5C4)cc3c2)n1 (centres unmarked) [Compound 535, 3-(3,6-diazabicyclo[3.2.0]heptan-3-yl)-6-[3-(6-methyl-2-pyridyl)-1H-pyrazol-4-yl]quinoline] | 25.1 to 158 |

| Structure (SMILES) | Ki [2] [nM] | IC50 [1] [nM] |
| --- | --- | --- |
| Cc1cccc(-c2[nH]cnc2-c2ccc3ncc(C(=O)OCC45CCC(CC4)N5)cc3c2)n1 [Compound 780, 7-azabicyclo[2.2.1]heptan-1-ylmethyl 6-[5-(6-methyl-2-pyridyl)-1H-imidazol-4-yl]quinoline-3-carboxylate] | 0.398 to 3.16 | 25.1 to 158 |
